From patent publication US8933046B2 (priority 2009, dated 2015)

Columns and labels:
A549 cells = assay: Influence of TG003 on cell viability (WST-1 assay); type: cell-based, human; conditions: TG003 50 μM
Protocol: FIG. 18|Influence of the chemical CLK1 inhibitor TG003 on cell viability. A549 cells were incubated with TG003 (50 μM, dissolved in DMSO), with DMSO or left untreated. Cell viability was evaluated at the indicated time points using the WST-1 assay, according to the manufacturer's instructions. Shown are the mean values from three replicates. Error bars indicate the standard deviation.
Determination of host cell viability upon siRNA transfection was performed using cell proliferation assay WST-1 (Roche, Mannheim, Germany). WST-1 reagent was added to the cells 48 h after siRNA transfection and incubated at 37° C. for 1.5 h. Absorbance was measured at 460 nm and at the reference wavelength 590 nm. Non-targeting siRNA Allstars and siPLK1 were used as a […].

[1] = tested on: viral M1 and M2 mRNA (influenza A/WSN/33); type: cell-based, influenza A virus
[2] = tested on: viral M1 and M2 protein (influenza A/WSN/33); type: cell-based, influenza A virus
[3] = tested on: vesicular stomatitis virus (VSV); type: cell-based; conditions: TG003 50 μM, A549 pretreated 24 h, VSV MOI 0.01, 24 h p.i.
[4] = tested on: influenza A/WSN/33 (H1N1) virus; type: cell-based
[5] = tested on: influenza A/Hamburg/04/2009 (H1N1) virus; type: cell-based

Row | Compound | toxic effects (cell viability, WST-1) (A549 cells) | levels of spliced M2 viral RNA [1] | unspliced M1 and NS1/NS2 viral RNA [1] | M1 protein levels [2] | M2 protein levels [2] | replication of vesicular stomatitis virus (VSV) [3] | normalised inhibition of infectious virus particles, siRNA1 [4] | normalised inhibition of infectious virus particles, siRNA2 [4] | normalised inhibition of infectious virus particles, siRNA3 [4] | normalised inhibition of infectious virus particles, siRNA4 [4] | normalised inhibition of infectious virus particles, siRNA1 [5] | normalised inhibition of infectious virus particles, siRNA2 [5] | normalised inhibition of infectious virus particles, siRNA3 [5] | normalised inhibition of infectious virus particles, siRNA4 [5]
1 | CCN1/C(=C/C(C)=O)Sc2ccc(OC)cc21 [TG003] | without exerting detectable toxic effects | reduced | unaffected | remained relatively constant | drastically reduced | only slightly reduced |  |  |  |  |  |  |  | 
2 | WNT3A |  |  |  |  |  |  | 0.36 | −0.16 | 0.64 | 0.81 | 0.53 | 0.4 | 0.91 | 1.1
